# Measured values taken from patent US6713048B2, “Δ9 tetrahydrocannabinol (Δ9 THC) solution metered dose inhalers and methods of use” (Virginia Commonwealth University, priority 1998, dated 2004).
# Entries after “also recorded” stand apart in the source; their conditions may differ.
# Columns and labels:
# [1] = tested on: AIDS-associated anorexia and cachexia; conditions: oral 2.5 mg THC twice daily; 139 patients; 42 days; cited from earlier work
# [2] = tested on: Pain due to advanced cancer; conditions: oral 5, 10, 15 or 20 mg THC; 10 patients; cited from earlier work
# [3] = tested on: Spasticity related to multiple sclerosis; conditions: 13 patients, cited from earlier work
# asthmatic patients = conditions: low concentration aerosol; cited from earlier work
# [4] = tested on: AIDS-associated anorexia and cachexia; conditions: oral 2.5 mg THC once or twice daily increasing to 20 mg daily; 94 patients; 12 months; cited from earlier work
# [5] = tested on: Spasticity related to multiple sclerosis; conditions: oral 5 to 15 mg THC; 8 patients, single blind; cited from earlier work
# [6] = tested on: Spasticity related to multiple sclerosis; conditions: 5 or 10 mg THC; 9 patients; cited from earlier work
# [7] = tested on: Nausea and emesis due to Cancer chemotherapy; conditions: oral 10 mg/m^2 THC; refractory to other antiemetics; cited from earlier work
# [8] = tested on: Spasticity and pain due to spinal cord injury; conditions: oral THC (5 mg) or codeine (50 mg); 1 patient; cited from earlier work
# [9] = tested on: Nausea and emesis due to Cancer chemotherapy; conditions: oral 5 or 15 mg/m^2 THC four times per day; 53 patients refractory to other antiemetics; cited from earlier work
# in vivo = conditions: for concentration at 20 min: brain
# Experimental: Whether inhalation exposure to Δ^9 THC aerosol would elicit pharmacological effects indicative of cannabinoid activity in mice (Compton, D. R., Rice, K. C., De Costa, B. R., Rzdan, R. K., Melvin, L. S., Johnson, M. R., Martin, B. R., Cannabinoid structure-activity relationships: Correlation of receptor binding and in vivo activities, J Pharmacol Exp Ther, 265:218-226 (1993); Little et al., 1988) was determined.
# Blood and brain levels of Δ^9-THC were determined as follows. Extraction and LC-MS quantification of Δ^9-THC from whole blood and brain tissue were modified from Lichtman, A. H., Poklis, J. L., Wilson, D. M., Martin, B. R., The pharmacological activity of inhalation exposure to marijuana smoke in mice, Drug Alc Depend, 63:107-116 (2001). Particularly, THC and 2H^3-THC were extracted from brain material which contains a high degree of lipids. Acetonitrile was added to the pelletized solids and stored in a freezer overnight to separate the acetonitrile layer (which contained THC/2H^3-THC) from the aqueous layers. The following day the acetonitrile layer was removed. In the Lichtman et al., study, 2 ml of 9:1 NaOH was added and the sample was vortexed. Four ml of 9:1 hexane:ethyl acetate was added and the sample was vortexed and spun […] for 30 minutes. The vials were then centrifuged at 4,000 rpm […] for 10 minutes. The organic layer was removed and evaporated. Upon drying, a derivatizing agent was added and the sample was vortexed, and each sample analyzed by GC/MS. In the present experimentation, the acetonitrile was instead evaporated to dryness under nitrogen. The material was then resolubilized in 0.1 ml methanol. LC-MS identification was used to quantify Δ^9-THC/2H^3-THC in blood and brain matrices. […] Fifty ng of ^2H3-THC (Radian Corporation, Austin, Tex.) was added to the blood sample, brain homogenate, and calibrators as an internal standard. Following an equilibration period, 2.5 ml of cold acetonitrile (HPLC grade, Fisher Scientific, Raleigh, N.C.) was added drop-wise while vortexing. The samples were then centrifuged (Precision Vari-Hi-Speed Centricone, Precision Scientific Co., Chicago, Ill.) at 2500 rpm for 15 minutes to pelletize solids, then stored in the freezer (−20° C.) overnight, allowing the acetonitrile layer to separate from the aqueous layers. The acetonitrile layer was then removed and evaporated to dryness under nitrogen. The Δ^9-THC/^2H3-THC was then resolubilized in 0.1 ml methanol (HPLC grade, Fisher Scientific).
# LC-MS identification was used for quantification of Δ^9-THC and ^2H3-THC in blood and brain matrices using an 85:15 methanol: 1% glacial acetic acid (0.1% formic acid) mobile phase. A guard column was used inline with the standard reverse phase C18 column. The mass spectrometer was run in APCI+mode. Ions analyzed in single ion monitoring mode were 315 for Δ^9-THC and 318 for ^2H3-THC. A calibration curve was constructed for each assay based on linear regression using the peak-area ratios of Δ^9-THC to ^2H3-THC of the extracted calibration samples.
# [10] = tested on: Pain due to advanced cancer; conditions: 10 and 20 mg THC, 60 and 120 codeine; 34 patients; cited from earlier work
# [11] = tested on: Nausea and emesis due to Cancer chemotherapy; conditions: oral 15 mg THC, 116 patients, cited from earlier work
# [12] = tested on: Nausea and emesis due to Cancer chemotherapy; conditions: oral THC 15 mg/m^2, cited from earlier work
# airways = conditions: nebulized micro-aerosol, propylene glycol vehicle; cited from earlier work
# [13] = tested on: Nausea and emesis due to Cancer chemotherapy; conditions: oral 10 mg/m^2 THC; 84 patients; cited from earlier work
# [14] = 10 mg prochloperzine or placebo
smiles,measurement,setting,value
"CCCCCc1cc(O)c2c(c1)OC(C)(C)[C@@H]1CCC(C)=C[C@@H]21 (relative stereo) [Δ^9 THC, (6aR-trans)-6a,7,8,10a-tetrahydro-6,6,9-trimethyl-3-pentyl-6H-dibenzo[b,d]-pyran-1-ol]",appetite increase over baseline,[1],Appetite increased 38%
same,nausea,[1],THC also decreased
same,weight change between THC and placebo groups,[1],nausea. No significant
same,appetite,[2],"appetite stimulation,"
same,mood,[2],elevated mood
same,pain,[2],Pain relief
same,objective measurements of spasticity,[3]; oral 2.5 to 15 mg THC once or twice daily,no significant improvement
same,subjective improvement in spasticity,"[3]; oral, at 7.5 mg THC and higher, once or twice daily",Significant subjective
same,bronchial and systemic effects,asthmatic patients,bronchodilation without systemic side effects
same,appetite compared to controls,[4],improved appetite and only
same,weight compared to controls,[4],tended to increase weight
same,patients with both objective and subjective improvement,[5],tremor. 2 of 8 patients had
same,patients with mild subjective improvement in tremor,[5],5 of 8 patients had mild
same,side effects,[6],"treatment, minimal side"
same,spasticity compared to placebo treatment,[6],Decrease in spasticity
same,courses resulting in a reduction of vomiting (of 20 courses of THC),[7],"resulted in no vomiting, 9"
same,courses resulting in no decrease in vomiting (of 20 courses of THC),[7],"vomiting, 3 resulted in no"
same,courses resulting in no vomiting (of 20 courses of THC),[7],"In 20 courses of THC, 5"
same,effect on spasticity,[8],THC had a beneficial effect
same,patients with THC-induced partial or complete blockade of vomiting,[9],72% of patients exhibited a
same,brain levels relative to blood levels,"in vivo; following inhalation, mice",roughly equivalent; also recorded: equivalent concentrations
same,brain levels higher than those found in blood,"in vivo; i.v. administration, mice",approximately two to three
same,Kp at 20 min,"in vivo; mouse, brain relative to whole blood, iv",2 to 3
same,concentration at 20 min,"in vivo; mouse, inhaled, 20 actuations",340 ± 36 ng/g
same,concentration at 20 min,"in vivo; mouse, inhaled, 40 actuations",791 ± 94 ng/g
same,concentration at 20 min,"in vivo; mouse, inhaled, 60 actuations",890 ± 151 ng/g
same,concentration at 20 min,"in vivo; mouse, iv, 1 mg/kg",307 ± 28 ng/g
same,concentration at 20 min,"in vivo; mouse, iv, 3 mg/kg",854 ± 42 ng/g
same,concentration at 20 min,"in vivo; mouse, iv, 10 mg/kg",3310 ± 190 ng/g
same,analgesic potency compared with codeine,[10],greater potency than
same,degree of analgesia compared with codeine,[10],THC produced a similar
same,antiemetic effect compared with placebo,[11]; [14],each greater than placebo;
same,"antiemetic effects, THC vs prochlorperazine",[11]; [14],Equal antiemetic effects
same,CNS side effects compared with prochlorperazine,[11]; 10 mg prochloperzine,considerately more CNS
same,patients with reduction in chemotherapy-induced nausea and vomiting,[12]; 36 patients refractory to prochlorperazine or thiethylperazine,64% of patients given THC
same,side effects,[12]; 36 patients,effects included dysphoria;
same,bronchial and systemic effects,airways,bronchodilation without systemic effects
same,antiemetic efficacy compared with prochloperazine,[13],THC more effective than
